In US20260001889A1, “COMPOSITIONS USEFUL FOR MODULATING SPLICING” (Skyhawk Therapeutics, Inc., priority 2022, published 2026):

test system: ATXN3-HiBiT protein; test: ATXN3 Total Protein Assay (Kelly-ATXN3-HiBiT luminescence); type: cell-based; conditions: Kelly-ATXN3-HiBiT cells, 48 h after addition of compound
Source text: Example 36: ATXN3 Total Protein Assay
To monitor ATXN3 protein levels by luminescence, a Kelly-ATXN3-HiBiT cell line with homozygous knock-in of HiBiT at the C-terminus of the endogenous ATXN3 gene was used (knock-in of the HiBiT-tag coding sequence SEQ ID NO. 14: 5′[…]3′ into exon 11 of ATXN3-position 1114 of ATXN3 RefSeq NM_004993.6). Manipulations of the Kelly-ATXN3-HiBiT cell line that result in downregulation of the ATXN3-HiBiT protein (through modulation of ATXN3-HiBiT pre-mRNA splicing) can be followed by monitoring the luminescence signal of the HiBiT tag using the Nano Glo HiBiT Lytic Detection System (Promega, #N3050). Kelly-ATXN3-HiBiT cells were maintained in RPMI 1640 w/Glutamax (Gibco, #61870010), 10% FBS (Sigma Aldrich, #F8687), 1% Penicillin/Streptomycin (Gibco, #15140-122) at 37° C., 5% CO2. To assess HiBiT-luminescence signal upon compound treatment, 2000 Kelly-ATXN3-HiBiT cells were seeded per well in 384 plate format. Compounds were added 24 h after seeding. ATXN3-HiBiT-luminescence signal was read out 48 h after addition of the compound using the Nano Glo HiBiT Lytic Detection System (Promega, #N3050) according to the manufacturer's instructions. To control for cell viability, an identically prepared sister plate was read out with the CellTiter-Glo® 2.0 Assay (Promega, #G9243) according to the manufacturer's instructions. Fold changes of ATXN3-HiBiT-luminescence and of CellTiter-Glo viability signals were calculated relative to a DMSO control condition.

Row | SMILES | EC50
1 | C[C@H](N)Cc1oc2c(NCc3ccccc3OC(F)(F)F)cc(Cl)nc2c1Br [Compound 349, 2-[(S)-2-aminopropyl]-3-bromo-5-chloro-7-{[(o-trifluoromethoxyphenyl)methyl]amino}-1-oxa-4-azaindene] | 10000 to 40000 nM
2 | C[C@H](N)Cc1oc2c(NCc3ccc(F)c(F)c3F)cc(Cl)nc2c1Br [Compound 351, 2-[(S)-2-aminopropyl]-3-bromo-5-chloro-7-{[(2,3,4-trifluorophenyl)methyl]amino}-1-oxa-4-azaindene] | 10000 to 40000 nM

The remaining lines, values ahead:

Row | EC50 | SMILES
3 | 0.01 to 100 nM | C[C@H](N)C(F)(F)c1oc2c(NCc3cccs3)cc(Cl)nc2c1Br [Compound 187, 2-[(S)-2-amino-1,1-difluoropropyl]-3-bromo-5-chloro-7-thenylamino-1-oxa-4-azaindene]
4 | 0.01 to 100 nM | C#Cc1c(C[C@@H](N)CCOC(F)F)oc2c(NCc3cccs3)cc(Cl)nc12 [Compound 197, 2-[(S)-2-amino-4-difluoromethoxybutyl]-5-chloro-3-ethynyl-7-thenylamino-1-oxa-4-azaindene]
5 | 5000 to 10000 nM | CC(O)c1oc2c(NCc3cccs3)cc(Cl)nc2c1Br (centres unmarked) [Compound 355, 1-(3-bromo-5-chloro-7-((thiophen-2-ylmethyl)amino)furo[3,2-b]pyridin-2-yl)ethan-1-ol]
6 | 10000 to 40000 nM | COC(C)c1oc2c(NCc3cccs3)cc(Cl)nc2c1Br (centres unmarked) [Compound 356, 3-bromo-5-chloro-2-(1-methoxyethyl)-N-(thiophen-2-ylmethyl)furo[3,2-b]pyridin-7-amine]

test system: ATXN3 transcripts containing exon 4; test: ATXN3 Quantitative Splicing Assay (qPCR, E4E5 primers/probe); type: cell-based; conditions: Homo sapiens, SK-N-MC cells, compounds for 24 h
Description: Example 34: ATXN3 Quantitative Splicing Assay
Human neuroblastoma SK-N-MC cells were plated in 384-well plates at 20,000 cells/well. Twenty-four hours after plating, cells were treated with compounds for 24 h at appropriate concentrations ranging from 30 μM to 0.6 nM (0.300 DMSO). Treated cells were lysed in 15 μL of lysis buffer, and cDNA was synthesized using the Fast Advanced Cells-to-Ct kit. Two […] of each cDNA was used in qPCR reactions to confirm the exon 4 skipped transcripts of ATXN3. A second set of primers/probe E4E5 was used to detect the transcripts containing exon 4. The third set of primers/probe E8E9 was used to detect total gene level of ATXN3. The qPCR reactions were prepared in 384-well plates in 10 μL volume, using TaqMan™ Fast Advanced Master Mix with primers and probes shown in the table below. Reactions were run in a Quant Studio 6 qPCR instrument with default settings.
The primers and probes are listed below in Table 4.

Row | SMILES | IC50
7 | C[C@H](F)[C@H](N)Cc1oc2c(NCc3cccs3)cc(C#N)nc2c1Cl [Compound 104, 2-[(2R,3S)-2-amino-3-fluorobutyl]-3-chloro-7-thenylamino-1-oxa-4-aza-5-indenecarbonitrile] | 101 to 500 nM
8 | N[C@H]1CCC[C@@H]1c1oc2c(NCc3cccs3)cc(Cl)nc2c1Br [Compound 170, 2-[(1S,2S)-2-aminocyclopentyl]-3-bromo-5-chloro-7-thenylamino-1-oxa-4-azaindene] | 0.01 to 100 nM
9 | N[C@@H]1CCC[C@H]1c1oc2c(NCc3cccs3)cc(Cl)nc2c1Br [Compound 172, 2-[(1R,2R)-2-aminocyclopentyl]-3-bromo-5-chloro-7-thenylamino-1-oxa-4-azaindene] | 501 to 5000 nM
10 | N[C@H]1CCCC[C@@H]1c1oc2c(NCc3cccs3)cc(Cl)nc2c1Br [Compound 174, 2-[(1,2S)-2-aminocyclohexyl]-3-bromo-5-chloro-7-thenylamino-1-oxa-4-azaindene] | 0.01 to 100 nM
11 | N[C@@H]1CCCC[C@H]1c1oc2c(NCc3cccs3)cc(Cl)nc2c1Br [Compound 176, 2-[(1R,2R)-2-aminocyclohexyl]-3-bromo-5-chloro-7-thenylamino-1-oxa-4-azaindene] | 501 to 5000 nM
12 | C[C@H](N)Cc1oc2c(NCc3ccco3)cc(Cl)nc2c1C(=O)N(C)C [Compound 357, 2-[(2S)-2-aminopropyl]-5-chloro-7-[(furan-2-ylmethyl)amino]-N,N-dimethylfuro[3,2-b]pyridine-3-carboxamide] | 10000 to 40000 nM
13 | CNC(=O)c1c(C[C@H](C)N)oc2c(NCc3ccco3)cc(Cl)nc12 [Compound 358, 2-[(2S)-2-aminopropyl]-5-chloro-7-[(furan-2-ylmethyl)amino]-N-methylfuro[3,2-b]pyridine-3-carboxamide] | 10000 to 40000 nM
14 | COc1cccc(CNc2cc(Cl)nc3c(Br)c(C[C@H](C)N)oc23)c1F [Compound 359, 2-[(S)-2-aminopropyl]-3-bromo-5-chloro-7-{[(2-fluoro-3-methoxyphenyl)methyl]amino}-1-oxa-4-azaindene] | 10000 to 40000 nM
15 | COc1cc(CNc2cc(Cl)nc3c(Br)c(C[C@H](C)N)oc23)ccn1 [Compound 361, 2-[(S)-2-aminopropyl]-3-bromo-5-chloro-7-{[(2-methoxy-4-pyridyl)methyl]amino}-1-oxa-4-azaindene] | 10000 to 40000 nM
16 | COc1cccc(CNc2cc(Cl)nc3c(Br)c(C[C@H](C)N)oc23)c1 [Compound 362, 2-[(S)-2-aminopropyl]-3-bromo-5-chloro-7-{[(m-methoxyphenyl)methyl]amino}-1-oxa-4-azaindene] | 5000 to 10000 nM
17 | C[C@H](N)Cc1oc2c(NCc3ccco3)cc(Cl)nc2c1-c1nnco1 [Compound 364, 2-[(2S)-2-aminopropyl]-5-chloro-N-(furan-2-ylmethyl)-3-(1,3,4-oxadiazol-2-yl)furo[3,2-b]pyridin-7-amine] | 501 to 5000 nM
18 | C[C@H](N)Cc1oc2c(NCc3ccco3)cc(Cl)nc2c1-c1ncc(C(N)=O)o1 [Compound 365, 2-{2-[(2S)-2-aminopropyl]-5-chloro-7-[(furan-2-ylmethyl)amino]furo[3,2-b]pyridin-3-yl}-1,3-oxazole-5-carboxamide] | 10000 to 40000 nM
19 | C[C@H](N)Cc1oc2c(NCc3ccco3)cc(Cl)nc2c1-c1ncc(C#N)o1 [Compound 366, 2-{2-[(2S)-2-aminopropyl]-5-chloro-7-[(furan-2-ylmethyl)amino]furo[3,2-b]pyridin-3-yl}-1,3-oxazole-5-carbonitrile] | 10000 to 40000 nM
20 | Cc1c(C[C@H](C)N)oc2c(NCc3cccs3)cc(F)nc12 [Compound 404, 2-[(S)-2-aminopropyl]-5-fluoro-3-methyl-7-thenylamino-1-oxa-4-azaindene] | 101 to 500 nM

The remaining lines, values ahead:

Row | IC50 | SMILES
21 | 501 to 5000 nM | N[C@H]1CCCC[C@H]1c1cc2nc(Cl)cc(NCc3cccs3)c2o1 (racemic) [Compound 363, rac-2-[(1R,2S)-2-aminocyclohexyl]-5-chloro-N-(thiophen-2-ylmethyl)furo[3,2-b]pyridin-7-amine]
22 | 101 to 500 nM | N[C@H]1CC[C@@H]1c1oc2c(NCc3cccs3)cc(Cl)nc2c1Br (racemic) [Compound 367, 2-(2-aminocyclobutyl)-3-bromo-5-chloro-N-(thiophen-2-ylmethyl)furo[3,2-b]pyridin-7-amine]
23 | 501 to 5000 nM | N[C@@H]1CC[C@H]1c1oc2c(NCc3cccs3)cc(Cl)nc2c1Br (single isomer, unassigned) [Compound 290]
24 | 101 to 500 nM | N[C@H]1CC[C@@H]1c1oc2c(NCc3cccs3)cc(Cl)nc2c1Br (single isomer, unassigned) [Compound 291]
25 | 5000 to 10000 nM | N[C@H]1CC(F)(F)C[C@@H]1c1oc2c(NCc3cccs3)cc(Cl)nc2c1Br (single isomer, unassigned) [Compound 369]
26 | 101 to 500 nM | N[C@@H]1CC(F)(F)C[C@H]1c1oc2c(NCc3cccs3)cc(Cl)nc2c1Br (single isomer, unassigned) [Compound 388]
27 | 0.01 to 100 nM | C[C@H](N)C(F)(F)c1oc2c(NCc3cccs3)cc(Cl)nc2c1Br [Compound 187, 2-[(S)-2-amino-1,1-difluoropropyl]-3-bromo-5-chloro-7-thenylamino-1-oxa-4-azaindene]
28 | 0.01 to 100 nM | C#Cc1c(C[C@@H](N)CCOC(F)F)oc2c(NCc3cccs3)cc(Cl)nc12 [Compound 197, 2-[(S)-2-amino-4-difluoromethoxybutyl]-5-chloro-3-ethynyl-7-thenylamino-1-oxa-4-azaindene]
29 | 101 to 500 nM | C#Cc1c(C[C@@H](N)[C@H](C)F)oc2c(NCc3cccs3)c(F)c(Cl)nc12 [Compound 278, 2-[(2R,3S)-2-amino-3-fluorobutyl]-5-chloro-3-ethynyl-6-fluoro-7-thenylamino-1-oxa-4-azaindene]
30 | 5000 to 10000 nM | COCc1oc2c(NCc3cccs3)cc(Cl)nc2c1Br [Compound 360, 3-bromo-5-chloro-2-(methoxymethyl)-N-(thiophen-2-ylmethyl)furo[3,2-b]pyridin-7-amine]
31 | 501 to 5000 nM | Clc1cc(NCc2cccs2)c2oc(OCC3CCC3)c(Br)c2n1 [Compound 368, 3-bromo-5-chloro-2-(cyclobutylmethoxy)-N-(thiophen-2-ylmethyl)furo[3,2-b]pyridin-7-amine]
32 | 101 to 500 nM | N[C@H]1COC[C@@H]1c1oc2c(NCc3cccs3)cc(Cl)nc2c1Br [Compound 373, 2-[(3R,4R)-4-aminotetrahydro-3-furyl]-3-bromo-5-chloro-7-thenylamino-1-oxa-4-azaindene]
33 | 10000 to 40000 nM | N[C@@H]1COC[C@H]1c1oc2c(NCc3cccs3)cc(Cl)nc2c1Br [Compound 374, 2-[(3S,4S)-4-aminotetrahydro-3-furyl]-3-bromo-5-chloro-7-thenylamino-1-oxa-4-azaindene]
34 | 101 to 500 nM | N[C@H]1CCC(F)(F)C[C@@H]1c1oc2c(NCc3cccs3)cc(Cl)nc2c1Br [Compound 380, 2-[(1S,2S)-2-amino-5,5-difluorocyclohexyl]-3-bromo-5-chloro-7-thenylamino-1-oxa-4-azaindene]
35 | 0.01 to 100 nM | C#Cc1c([C@H]2CCCC[C@@H]2N)oc2c(NCc3cccs3)cc(Cl)nc12 [Compound 385, 2-[(1S,2S)-2-aminocyclohexyl]-5-chloro-3-ethynyl-7-thenylamino-1-oxa-4-azaindene]
